Consider 8 molecules from PMC12557438, “Thiadiazino-indole, thiadiazino-carbazole and benzothiadiazino-carbazole dioxides: synthesis, physicochemical and early ADME characterization of representatives of new tri-, tetra- and pentacyclic ring systems and their intermediates” (Beilstein Journal of Organic Chemistry, 2025).

SMILES strings stand for the structures. ≈ marks a conversion by molar mass, not a printed value. Read-outs that look alike come from different tables or passages of the source. Bounds are passed on as bounds.

Broadly, the solubility (kinetic) is the concentration staying in solution when a stock, usually in DMSO, is diluted into the medium.

The nature of data set [1]: Kinetic aqueous solubility assay. In kind it is physicochemical. More on the design: key to Kinetic solubility (no value): –: Compounds with no value were under the detection limit. Particulars: for solubility kinetic at 2 h: PBS buffer, pH 6.5, aqueous buffer, kinetic from dmso stock; for Kinetic solubility (no value): PBS pH 6.5, 2 hours, dash = under the detection limit; for Kinetic solubility in words: wording of the text, outside the class key. Here is the method: (§1) Kinetic aqueous solubility assay. All compounds were dissolved in DMSO to make stock solutions at 10 mM concentration. […] 5 μL of the stock solutions was pipetted into a 96-well plate containing 495 μL PBS (pH 6.5) in each well to achieve 100 μM target concentration (1% DMSO). […] The plate was then sealed and shaken for 2 hours at room temperature. Each compound was investigated in 3 replicates. After 2 hours, the samples were filtered on a MultriscreenHTS filter plate (MSSLBPC, polycarbonate membrane, Merck KGaA, Darmstadt, Germany) by a Millipore Vacuum Manifold (Merck KGaA, Darmstadt, Germany). Before analyzing, 20 vol % acetonitrile was added to each well to avoid sample precipitation during HPLC analysis.
(§2) Analytical methods. […] For a 7-minute long gradient program, eluents A (0.1% formic acid in water) and B (0.1% formic acid in acetonitrile) were used as follows: initial conditions with 30% B were kept for 1 minute, then 90% B was achieved within 3 minutes, kept for further 1 minute, finally the initial condition was adjusted and equilibrated for further 2 minutes. 5-Point calibration series were measured from each compound resulting in R^2 ≈ 0.9990–0.9999.

Data set [2] is described as follows: Metabolic stability assay in human liver microsome fractions. It is filed as in vitro ADME. The note with it: NADPH, 37 °C; for CLint scaled at 10 µM / half-life at 10 µM: pH 7.4, pooled human liver microsomes; for CLint scaled at 10 µM: read-out: HLM Clint (converted); for half-life at 10 µM: read-out: HLM t1/2. Here is the method:
Metabolic stability assay in human liver microsome fractions. The metabolic stability of the test compounds was assessed in vitro using pooled liver microsome fractions derived from humans (Xenotech LLC). The assay was conducted in a 96-well plate format according to a standardized protocol, utilizing cofactor-supplemented incubation systems, mainly to mimic phase I oxidative metabolic pathways. Human liver microsome (HLM) fractions were thawed on ice and diluted in 0.05 M potassium phosphate buffer (pH 7.4) to a final protein concentration of 1.25 mg/mL. Test compounds were dissolved in DMSO to create stock solutions of 5 mM. The drug concentration in the final assays was 10 μM. The assay was performed in triplicate. Reaction mixtures containing the diluted HLM fractions and test compounds were pre-incubated for 5 minutes at 37 °C while shaking at 450 rpm. The reaction was initiated by adding the 0.05 M NADPH cofactor mixture to the wells (100 µL per well) for the “with cofactors” conditions or by adding phosphate buffer for the “without cofactors” control. Aliquots (100 µL) were taken at zero time and at pre-defined time points of 30 and 60 minutes and quenched with an equal volume of cold acetonitrile. The samples were centrifuged at 2600 RCF for 10 minutes to pellet proteins. Supernatants were transferred to LC vials and stored at −20 °C until LC–MS/MS analysis. The concentration of the parent compound remaining in each sample was determined using liquid chromatography coupled with tandem mass spectrometry (LC–MS/MS). The percentage of the remaining substrate was calculated relative to the time-zero sample. The natural logarithm of the percentage remaining was plotted against incubation time to determine the first-order elimination rate constant (k) using linear regression. The half-life (t₁/₂) was calculated using Equation 4: […]
Intrinsic clearance (Clint) was calculated and scaled to in vivo conditions using Equation 5:
[5] Clint=ln2/t1/2×liver weight (g)/standard body weight (kg)×incubation volume (mL)/HLM protein/well×HLM protein (mg)/gram of liver
where the HLM protein per gram of liver was equal to 25 and the liver weight per standard body was equal to 49. Testosterone was included as a positive control to confirm metabolic competence of the HLM fractions, with and without cofactors.
HPLC–MS analysis. The semi-quantitative determination of test compounds was carried out using a Waters Xevo G2-XS QToF mass spectrometer equipped with an electrospray ionization (ESI) source operating in positive ion mode. Chromatographic separation was performed on a Waters XBridgeTM Premier BEH C18 (3.5 μm, 4.6 × 150 mm) column maintained at 40 °C. The mobile phase consisted of water with 0.1% formic acid (A) and acetonitrile with 0.1% formic acid (B). The injection volume was 10 µL. The autosampler was maintained at 5 °C. The gradient elution program shown in Table 4 was applied at a constant flow rate of 1.0 mL/min.
The mass spectrometer operated in sensitivity mode with a capillary voltage of 3.0 kV, source temperature was 100 °C, and desolvation temperature was 350 °C. The cone gas flow was set to 0 L/h and desolvation gas flow to 800 L/h. LockSpray calibration was performed using leucine enkephalin as the reference compound (m/z 556.2771), introduced at 15 µL/min. Data acquisition was performed in MSE mode with alternating low collision energy (6 eV) and ramped high-energy collision dissociation (20–40 eV). The mass range was set from 50 to 1200 Da. Each function used a scan time of 0.5 s. Data were acquired in the continuum mode. Instrument mass accuracy calibration was verified using sodium formate. The system was controlled with a MassLynx v4.2 SCN996 software.
(Liver microsomes are a subcellular fraction often used to study metabolism.)

The nature of data set [3]: In vitro gastrointestinal permeability assay (GI PAMPA). It is filed as in vitro ADME. The note with it: for Papp at 4 h, 100 µM: PAMPA; for GI PAMPA membrane retention / GI PAMPA penetration: donor pH 6.5, acceptor pH 7.4, 1% DMSO, 37 °C, 4 hours, mean of 3 replicates; for GI PAMPA membrane retention (MR) in words: wording of the text, outside the class key. As for the experimental part:
In vitro gastrointestinal permeability assay. […] The artificial membrane was fabricated by dissolving ʟ-α-phosphatidylcholine (16 mg) and cholesterol (4 mg) in a solvent mixture of chloroform, hexane and dodecane (5/70/25 vol %). Each well of the PAMPA donor plate (MAIPNTR, PVDF membrane, Merck KGaA, Darmstadt, Germany) was coated with 5 μL lipid solution. Thereafter the donor plate was fitted into the acceptor plate (MSSACCEPTOR, Merck KGaA, Darmstadt, Germany) already containing 300 μL PBS (pH 7.4) solutions with 1% DMSO. Finally, 150 μL of the initial solutions was pipetted into the donor plate, the plate sandwich was covered with a wet paper tissue and with a plate lid to avoid evaporation, and the system was incubated at 37 °C for 4 hours. Then samples were taken from the donor and acceptor wells and analyzed along with the initial solutions by HPLC.
[1] Pe=−2.303/A⋅(t−τss)⋅(1/1+ra)⋅lg[−ra+(1+ra/1−MR)⋅cD(t)/cD(0)]
[2] MR=1−cD(t)/cD(0)−VAcA(t)/VDcD(0)
where A is the filter area (0.24 cm^2), t is the incubation time (s), τss is the time to reach steady-state (s), ra is the sink asymmetry ratio approximated with a value of 10^−14, VD and VA are the volumes in the donor (0.15 mL) and the acceptor phase (0.3 mL), cD(t) is the concentration of the compound in the donor phase at time point t (mol/L), cD(0) is the concentration of the compound in the donor phase at time point zero (initial solutions, mol/L), cA(t) is the concentration of the compound in the acceptor phase at time point t (mol/L), cA(0) is the concentration of the compound in the acceptor phase at time point zero (mol/L).
as §2
Background: The PAMPA barrier holds no transporters, so it reflects passive diffusion.

Data set [4] in a line: Determination of the capacity factor (logk) by RP-HPLC. It is filed as physicochemical. Particulars: reversed-phase chromatographic capacity factor, eluent pH 7.0. As for the experimental part:
Determination of the capacity factor. […] The same analytical method was used with modified eluents: eluent A was 20 mM triethylamine with phosphoric acid (pH 7.0), and eluent B was acetonitrile without additives. The method time was slightly extended, with a 1-minute longer gradient, resulting in an 8-minute program. The capacity factor was calculated with Equation 3: […]
where k is the capacity factor, tR is the retention time (min) of the compounds and t0 is the dead-time of the column (min).

Data set [5] can be described thus: DMSO solubility (stock solution preparation). In kind it is physicochemical. As for the experimental part: as §1
[6] abbreviates: PBS pH 6.5, 100 µM target concentration (1% DMSO), 2 hours, room temperature, mean of 3 replicates, read-out: Kinetic solubility.
The mark [7] stands for this setting: class in words, read-out: Kinetic solubility category.
[8] abbreviates: scaled to in vivo conditions (Equation 5).
The mark [9] stands for this setting: class in words, read-out: GI PAMPA permeability (Pe) category.
[10] abbreviates: colour key of Figure 5, read-out: Permeability category (Pe), colouring of Figure 5.

With `CC1=NN(C)S(=O)(=O)c2c(NN=C3CCCC3)cccc21` [Compound 7d], the solubility (kinetic) at 2 h in data set [1] (setting [6]) came to 46.9 ± 2.8 µM (≈ 14.4 µg/mL). Also, in data set [1] (setting [7]), the kinetic solubility at 2 h is over 30 µM. Besides, the CLint scaled at 10 µM in data set [2] (setting [8]) was 1.34 mL/h/kg. Moreover, the half-life at 10 µM in data set [2] (triplicate) stood at 31 ± 3 min. Also, the Papp at 4 h, 100 µM in data set [3] (setting [9]) is under 10 ×10⁻⁶ cm/s. Further, the Papp at 4 h, 100 µM in data set [3] (setting [10]) is under 10 ×10⁻⁶ cm/s. In data set [3], the “GI PAMPA membrane retention” value is recorded as 93.3 ± 0.2%, the “GI PAMPA penetration” value is recorded as 7.6 ± 2.9 10^−6 cm/s and the “GI PAMPA membrane retention (MR) in words” value is “high”. In data set [4], the “logk (−) pH 7.0” value is 0.599.

For the molecule `CN1N=C(c2ccccc2)c2cccc(NN=C3CCCC3)c2S1(=O)=O` [Compound 7i], the solubility (kinetic) at 2 h in data set [1] (setting [6]) stood at 2.2 ± 0.1 µM (≈ 0.811 µg/mL). The “highest concentration achieved in DMSO” value in data set [5] was 0.5 mM. Moreover, the “logk (−) pH 7.0” value in data set [4] is on record as 0.661.

With `CN1N=C(c2ccccc2)c2cccc(N/N=C3\CCCc4ccccc43)c2S1(=O)=O` [(E)-9b], in data set [1] (room temperature), the “Kinetic solubility (no value)” value is “–”. In data set [5], the “highest concentration achieved in DMSO” value amounted to 0.5 mM. Moreover, the “logk (−) pH 7.0” value in data set [4] stood at 0.695.

`CC1=NN(C)S(=O)(=O)c2c1ccc1c3c([nH]c21)CCCC3` [Compound 3e, 2,4-Dimethyl-2,7,8,9,10,11-hexahydro[1,2,3]thiadiazino[6,5-a]carbazole 1,1-dioxide]: in data set [1] (setting [6]), the solubility (kinetic) at 2 h amounted to 51.4 ± 1.3 µM (≈ 15.6 µg/mL). Also, in data set [1] (setting [7]), the solubility (kinetic) at 2 h is over 30 µM. For the same molecule, the half-life at 10 µM in data set [2] (triplicate) came to 100 ± 23 min. Also, the Papp at 4 h, 100 µM in data set [3] (setting [9]) was under 10 ×10⁻⁶ cm/s. Also, the Papp at 4 h, 100 µM in data set [3] (setting [10]) is under 10 ×10⁻⁶ cm/s. Also, in data set [3], the “GI PAMPA membrane retention” value stood at 82.3 ± 0.8%, the “GI PAMPA penetration” value was 7.1 ± 1.7 10^−6 cm/s and the “GI PAMPA membrane retention (MR) in words” value is listed as “high”. Also, the “logk (−) pH 7.0” value in data set [4] amounted to 0.516.

Regarding `CN1N=C(c2ccccc2)c2cccc(NN=C3CCCCC3)c2S1(=O)=O` [Compound 7j], the solubility (kinetic) at 2 h in data set [1] (setting [6]) is 2.8 ± 0.2 µM (≈ 1.07 µg/mL). Besides, in data set [5], the “highest concentration achieved in DMSO” value stood at 0.5 mM. Besides, in data set [4], the “logk (−) pH 7.0” value came to 0.660.

Take `CC1=NN(C)S(=O)(=O)c2c1ccc1c(C)c[nH]c21` [Compound 3c]: the values for the kinetic solubility at 2 h in data set [1] (setting [6]) and in data set [1] (setting [7]) were 41.4 ± 0.9 µM (≈ 10.9 µg/mL) and over 30 µM, respectively. Also, in data set [1], the “Kinetic solubility in words” value was “moderate to good”. The CLint scaled at 10 µM in data set [2] (setting [8]) was 1.42 mL/h/kg. Moreover, in data set [2] (triplicate), the half-life at 10 µM is 29 ± 2 min. The Papp at 4 h, 100 µM in data set [3] (setting [9]) and in data set [3] (setting [10]) was over 10 ×10⁻⁶ cm/s throughout. Moreover, the “GI PAMPA membrane retention (MR) category” value in data set [3] (class in words) is reported as “moderate (moderate under 80%)”. Moreover, in data set [3], the “GI PAMPA membrane retention” value is recorded as 39.8 ± 0.2%. In addition, the “GI PAMPA penetration” value in data set [3] is on record as 30.3 ± 4.2 10^−6 cm/s. In addition, the “logk (−) pH 7.0” value in data set [4] stood at 0.567.

As for `CC/C(C)=N/Nc1cccc2c1S(=O)(=O)N(C)N=C2C` [(E)-7a], the Kinetic solubility in data set [1] (PBS pH 6.5, 100 µM target concentration (1% DMSO), 2 hours, room temperature, mean of 3 replicates) is given as 20.5 ± 0.8 µM. In data set [1], the “Kinetic solubility in words” value was “moderate to good”. The “HLM Clint” value in data set [2] (pooled human liver microsomes, 10 μM, scaled to in vivo conditions (Equation 5)) amounted to 1.2 ± 0.042 mL/h/kg. Besides, the “HLM t1/2” value in data set [2] (pooled human liver microsomes, 10 μM, triplicate) amounted to 34 ± 1 min. For the same molecule, in data set [3] (class in words), the “GI PAMPA membrane retention (MR) category” value is listed as “moderate (moderate under 80%)” and the “GI PAMPA permeability (Pe) category” value is “good (good above 10 × 10^−6 cm/s)”. Besides, in data set [3], the “GI PAMPA membrane retention” value is 61.0 ± 5.1% and the “GI PAMPA penetration” value was 33.6 ± 3.0 10^−6 cm/s. Moreover, in data set [4], the “logk (−) pH 7.0” value stood at 0.547.

For the molecule `CC1=NN(C)S(=O)(=O)c2c(N/N=C3\CCCc4ccccc43)cccc21` [(E)-9a], in data set [1] (room temperature), the “Kinetic solubility (no value)” value is recorded as “–”. In data set [5], the “highest concentration achieved in DMSO” value is listed as 1 mM. Besides, in data set [4], the “logk (−) pH 7.0” value is 0.653.
